Entries after “also recorded” stand apart in the source; their conditions may differ.
Key:
microorganisms [1] = assay: Peptide activities: binding, antimicrobial, growth or phenotype altering (Table 8)
Excerpt: In certain embodiments, peptides described herein can have multiple activities. Thus for example, a peptide can have both binding/targeting activity and antimicrobial activity. Such peptides can be used, e.g., in a chimeric construct, for any or all of these properties. Thus, for example, a peptide designated “B” in Table 8 can be used as a targeting peptide. If it is also designated G or M it can also be used for antimicrobial activity.

bacteria = assay: Binding of targeting peptides to microorganisms (Table 3); settings: peptide binding in aqueous buffers that varied depending on peptide solubility; preferably 1x PBS
microorganisms [2] = assay: Morphology, biofilm and growth disruption by peptides (Table 5); assay type: cell-based; design: key: A: Peptide aggregates; B: Less hyphal formation; Clumps; Diffuse clumps and small polyps; F: Diffuse growth; H: Thin; I: Growth inhibition; Microcolony formation; Rippled; Small polyps; Thick; W: Halo formation on top, microlonies on bottom
Excerpt: In certain embodiments peptides that induce alterations in phenotype or other biological activities can also be used as antimicrobial effector moieties.

Row | Substance | Activities (microorganisms [1]) | Target(s) (microorganisms bound by the targeting peptide) (bacteria) | Organism, effect (morphology, biofilm and growth disruption) (microorganisms [2]; B. subtilis) | Organism, effect (morphology, biofilm and growth disruption) (microorganisms [2]; C. jejuni) | Organism, effect (morphology, biofilm and growth disruption) (microorganisms [2]; MRSA) | Organism, effect (morphology, biofilm and growth disruption) (microorganisms [2]; S. epidermidis) | Organism, effect (morphology, biofilm and growth disruption) (microorganisms [2]; S. pneumoniae) | Organism, effect (morphology, biofilm and growth disruption) (microorganisms [2]; C. jeikeium) | Organism, effect (morphology, biofilm and growth disruption) (microorganisms [2]; M. luteus) | Organism, effect (morphology, biofilm and growth disruption) (microorganisms [2]; E. coli) | Target(s) (microorganism bound by the targeting peptide) (bacteria) | Organism, effect (morphology, biofilm and growth disruption) (microorganisms [2]; E. faecalis) | Organism, effect (morphology, biofilm and growth disruption) (microorganisms [2]; C. albicans)
1 | PF-557 (AANKAREQAAAEAKRKAEEQAR; Peptide with targeting and/or antimicrobial activity) | G B | S. pneumoniae | B. subtilis (D) | – | – | – | – | – | – | – | – | – | –
2 | PF-558 (ADAPPPLIVRYS; Peptide with targeting and/or antimicrobial activity) | G B | S. epidermidis; also recorded: E. coli; also recorded: C. albicans; also recorded: C. jeikeium; also recorded: C. jejuni | B. subtilis (D) | C. jejuni (H) | MRSA (C) | S. epidermidis (M) | S. pneumoniae (R) | – | – | – | – | – | –
3 | PF-559 (SRPGKPGGVSIDVSRDRQDILSNYP; Peptide with targeting and/or antimicrobial activity) | G B | S. epidermidis; also recorded: M. luteus; also recorded: C. albicans; also recorded: C. jeikeium; also recorded: C. jejuni | B. subtilis (C) | C. jejuni (A) | – | – | – | – | – | – | – | – | –
4 | PF-560 (FGNPFRGFTLAMEADFKKRK; Peptide with targeting and/or antimicrobial activity) | G B | S. epidermidis; also recorded: M. luteus; also recorded: E. coli; also recorded: S. pneumoniae; also recorded: C. jeikeium; also recorded: C. jejuni | B. subtilis (D) | C. jejuni (A) | MRSA (C) | – | S. pneumoniae (R) | – | – | – | – | – | –
5 | PF-563 (RPELDNELDVVQNSASLDKLQASYN; Peptide with targeting and/or antimicrobial activity) | G B | S. epidermidis; also recorded: M. luteus; also recorded: C. jeikeium | B. subtilis (D) | C. jejuni (H) | – | – | S. pneumoniae (H) | – | – | – | – | – | –
6 | PF-564 (TIILNDQINSLQERLNKLNAETDRR; Peptide with targeting and/or antimicrobial activity) | G B | S. epidermidis; also recorded: C. albicans; also recorded: S. pneumoniae; also recorded: C. jeikeium | B. subtilis (D) | C. jejuni (R) | MRSA (C) | – | – | C. jeikeium (R) | – | – | – | – | –
7 | PF-566 (EAQQVTQQLGADFNAITTPTATKV; Peptide with targeting and/or antimicrobial activity) | G B | P. mirabilis; also recorded: S. pneumoniae | B. subtilis (C) | C. jejuni (D) | MRSA (M) | – | S. pneumoniae (D) | C. jeikeium (C) | M. luteus (D) | – | – | – | –
8 | PF-567 (QQRVKAVDASLSQVSTQVSGAVASA; Peptide with targeting and/or antimicrobial activity) | G B | S. epidermidis and P. aeruginosa and C. albicans and MRSA and S. pneumoniae and C. jeikeium | – | C. jejuni (D) | MRSA (D) | – | S. pneumoniae (D) | C. jeikeium (C) | M. luteus (C) | – | – | – | –
9 | PF-569 (KSKISEYTEKEFLEFVEDIYTNNK; Peptide with targeting and/or antimicrobial activity) | G B | M. luteus; also recorded: P. mirabilis; also recorded: S. pneumoniae; also recorded: E. faecalis; also recorded: C. jeikeium | B. subtilis (D) | – | – | – | – | – | – | – | – | – | –
10 | PF-572 (WRASKGLPGFKAG; Peptide with targeting and/or antimicrobial activity) | G B | S. epidermidis; also recorded: M. luteus; also recorded: E. coli; also recorded: S. pneumoniae; also recorded: C. jeikeium | B. subtilis (D) | – | – | – | S. pneumoniae (R) | – | – | – | – | – | –
11 | PF-573 (EKKLIVKLIDSIGKSHEEIVGAG; Peptide with targeting and/or antimicrobial activity) | G B | S. epidermidis; also recorded: S. pneumoniae | – | – | – | – | S. pneumoniae (C) | – | – | – | – | – | –
12 | PF-576 (AYSGELPEPLVRKMSKEQVRSVMGK; Peptide with targeting and/or antimicrobial activity) | G B | M. luteus; also recorded: P. mirabilis; also recorded: E. coli; also recorded: P. aeruginosa; also recorded: C. albicans; also recorded: S. pneumoniae | – | C. jejuni (C) | MRSA (R) | S. epidermidis (A) | S. pneumoniae (C) | – | – | E. coli (A) | – | – | –
13 | PF-587 (ASGKYQSYLLNVYVDSKKDRLDIFDKLKAKAKFVL; Peptide with targeting and/or antimicrobial activity) | G B | S. epidermidis and M. luteus and E. coli and MRSA and S. pneumoniae and E. faecalis and C. jeikeium | – | – | – | – | S. pneumoniae (C) | – | – | – | – | – | –
14 | PF-589 (APLRIDEIRNSNVIDEVLDCAPKKQEHFFVVPKIIE; Peptide with targeting and/or antimicrobial activity) | G B | S. epidermidis and C. albicans and MRSA and S. pneumoniae | – | – | MRSA (M) | – | S. pneumoniae (C) | – | – | – | – | – | –
15 | PF-614 (GLDIYA; Peptide with targeting and/or antimicrobial activity) | G B | – | – | C. jejuni (R) | – | S. epidermidis (M) | S. pneumoniae (R) | – | – | – | S. epidermidis; also recorded: E. coli; also recorded: C. jeikeium | E. faecalis (A) | –
16 | PF-616 (chain 1 IVFVVTKEKK; chain 2 IVFVVTKEKK; Peptide with targeting and/or antimicrobial activity) | G B | – | – | – | – | S. epidermidis (R) | – | – | – | – | C. jeikeium | E. faecalis (A) | –
17 | PF-617 (chain 1 PMNAAEPE; chain 2 PMNAAEPE; Peptide with targeting and/or antimicrobial activity) | G B | – | – | – | – | – | S. pneumoniae (I) | – | – | – | P. aeruginosa; also recorded: C. albicans | E. faecalis (H) | C. albicans (H)
18 | PF-621 (chain 1 PPSSFLV; chain 2 PPSSFLV; Peptide with targeting and/or antimicrobial activity) | G B | – | – | – | – | – | S. pneumoniae (I) | – | – | – | S. epidermidis; also recorded: C. albicans | E. faecalis (H) | –
